From ChEMBL document CHEMBL4507266, “Data for DCP probe BAY-784” (2021)

Assays:
[1] = target: T1, Alpha-2B adrenergic receptor (Homo sapiens) (UniProt P18089); conditions: Compound concentration 10.0 uM
T1 sequence (whole entry): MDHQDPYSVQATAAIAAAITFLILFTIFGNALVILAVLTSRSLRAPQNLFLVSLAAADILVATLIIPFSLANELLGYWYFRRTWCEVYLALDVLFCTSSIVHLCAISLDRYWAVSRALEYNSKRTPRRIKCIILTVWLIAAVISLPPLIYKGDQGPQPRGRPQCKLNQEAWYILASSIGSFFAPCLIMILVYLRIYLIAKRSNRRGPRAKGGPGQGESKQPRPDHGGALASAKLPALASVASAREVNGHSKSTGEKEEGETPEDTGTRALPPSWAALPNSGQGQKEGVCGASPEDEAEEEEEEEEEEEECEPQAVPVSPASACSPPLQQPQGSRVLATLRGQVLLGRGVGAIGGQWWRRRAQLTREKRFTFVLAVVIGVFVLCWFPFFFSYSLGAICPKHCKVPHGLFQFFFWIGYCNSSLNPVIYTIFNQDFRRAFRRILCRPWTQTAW

[2] = target: Serine/threonine-protein kinase ULK2 (Homo sapiens) (UniProt Q8IYT8); conditions: Compound concentration 1000.0 nM
[3] = target: Alpha-1B adrenergic receptor (Homo sapiens) (UniProt P35368); conditions: Compound concentration 10.0 uM
[4] = target: Dual specificity protein kinase CLK2 (Homo sapiens) (UniProt P49760); conditions: Compound concentration 1000.0 nM
[5] = target: Mitogen-activated protein kinase kinase kinase kinase 4 (Homo sapiens) (UniProt O95819); conditions: Compound concentration 1000.0 nM
[6] = target: Homeodomain-interacting protein kinase 3 (Homo sapiens) (UniProt Q9H422); conditions: Compound concentration 1000.0 nM
[7] = tested on: Mast/stem cell growth factor receptor Kit (Homo sapiens), P10721 [V559D]; conditions: Compound concentration 1000.0 nM
[8] = target: cGMP-dependent protein kinase 2 (Homo sapiens) (UniProt Q13237); conditions: Compound concentration 1000.0 nM
[9] = target: Interleukin-1 receptor-associated kinase 4 (Homo sapiens) (UniProt Q9NWZ3); conditions: Compound concentration 1000.0 nM
[10] = target: Serine/threonine-protein kinase pim-3 (Homo sapiens) (UniProt Q86V86); conditions: Compound concentration 1000.0 nM
[11] = target: Serine/threonine-protein kinase pim-2 (Homo sapiens) (UniProt Q9P1W9); conditions: Compound concentration 1000.0 nM
[12] = target: Receptor-interacting serine/threonine-protein kinase 1 (Homo sapiens) (UniProt Q13546); conditions: Compound concentration 1000.0 nM
[13] = target: Tyrosine-protein kinase Fes/Fps (Homo sapiens) (UniProt P07332); conditions: Compound concentration 1000.0 nM
[14] = target: Sodium-dependent noradrenaline transporter (Homo sapiens) (UniProt P23975); conditions: Compound concentration 10.0 uM
[15] = target: Vascular endothelial growth factor receptor 3 (Homo sapiens) (UniProt P35916); conditions: Compound concentration 1000.0 nM
[16] = target: Macrophage-stimulating protein receptor (Homo sapiens) (UniProt Q04912); conditions: Compound concentration 1000.0 nM
Macrophage-stimulating protein receptor (Homo sapiens), sequence (Q04912 25-304 limits assumed): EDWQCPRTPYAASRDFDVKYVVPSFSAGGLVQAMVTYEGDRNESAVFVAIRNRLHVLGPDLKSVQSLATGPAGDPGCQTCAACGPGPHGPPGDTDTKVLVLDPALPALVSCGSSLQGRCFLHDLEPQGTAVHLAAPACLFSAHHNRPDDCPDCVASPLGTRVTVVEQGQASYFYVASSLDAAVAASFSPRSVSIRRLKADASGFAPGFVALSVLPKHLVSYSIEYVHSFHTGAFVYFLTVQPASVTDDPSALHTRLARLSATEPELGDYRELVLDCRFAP
Macrophage-stimulating protein receptor (Homo sapiens), sequence (Q04912 310-1400 limits assumed): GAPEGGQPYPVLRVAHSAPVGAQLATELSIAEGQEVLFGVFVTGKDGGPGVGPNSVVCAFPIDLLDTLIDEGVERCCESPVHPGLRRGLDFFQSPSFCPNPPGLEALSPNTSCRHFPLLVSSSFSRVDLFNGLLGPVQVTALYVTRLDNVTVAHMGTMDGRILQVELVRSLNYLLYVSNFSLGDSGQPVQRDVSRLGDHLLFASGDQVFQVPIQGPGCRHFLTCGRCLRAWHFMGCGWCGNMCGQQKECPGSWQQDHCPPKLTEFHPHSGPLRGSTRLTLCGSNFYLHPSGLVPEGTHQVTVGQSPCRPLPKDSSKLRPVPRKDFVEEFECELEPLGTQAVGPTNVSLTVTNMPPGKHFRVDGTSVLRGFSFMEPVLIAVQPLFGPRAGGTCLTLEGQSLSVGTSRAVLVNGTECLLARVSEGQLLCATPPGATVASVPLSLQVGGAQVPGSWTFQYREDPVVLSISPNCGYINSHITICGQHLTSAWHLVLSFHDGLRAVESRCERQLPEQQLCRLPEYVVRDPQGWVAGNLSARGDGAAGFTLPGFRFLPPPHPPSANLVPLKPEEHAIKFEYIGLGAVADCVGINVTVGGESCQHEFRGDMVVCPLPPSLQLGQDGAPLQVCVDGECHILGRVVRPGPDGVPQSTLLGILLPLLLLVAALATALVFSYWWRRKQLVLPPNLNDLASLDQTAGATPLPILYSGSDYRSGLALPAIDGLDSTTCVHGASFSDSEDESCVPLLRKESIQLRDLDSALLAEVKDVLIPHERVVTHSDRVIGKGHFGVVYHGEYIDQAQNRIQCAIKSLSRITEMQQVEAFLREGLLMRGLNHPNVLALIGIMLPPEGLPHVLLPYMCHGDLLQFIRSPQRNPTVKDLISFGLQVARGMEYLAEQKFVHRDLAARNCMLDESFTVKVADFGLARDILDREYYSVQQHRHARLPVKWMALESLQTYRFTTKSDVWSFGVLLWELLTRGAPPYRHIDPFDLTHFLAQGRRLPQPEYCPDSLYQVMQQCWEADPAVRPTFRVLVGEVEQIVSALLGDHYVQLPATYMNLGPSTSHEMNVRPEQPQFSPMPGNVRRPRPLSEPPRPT

[17] = target: Serine/threonine-protein kinase D3 (Homo sapiens) (UniProt O94806); conditions: Compound concentration 1000.0 nM
Serine/threonine-protein kinase D3 (Homo sapiens), sequence (O94806 whole entry): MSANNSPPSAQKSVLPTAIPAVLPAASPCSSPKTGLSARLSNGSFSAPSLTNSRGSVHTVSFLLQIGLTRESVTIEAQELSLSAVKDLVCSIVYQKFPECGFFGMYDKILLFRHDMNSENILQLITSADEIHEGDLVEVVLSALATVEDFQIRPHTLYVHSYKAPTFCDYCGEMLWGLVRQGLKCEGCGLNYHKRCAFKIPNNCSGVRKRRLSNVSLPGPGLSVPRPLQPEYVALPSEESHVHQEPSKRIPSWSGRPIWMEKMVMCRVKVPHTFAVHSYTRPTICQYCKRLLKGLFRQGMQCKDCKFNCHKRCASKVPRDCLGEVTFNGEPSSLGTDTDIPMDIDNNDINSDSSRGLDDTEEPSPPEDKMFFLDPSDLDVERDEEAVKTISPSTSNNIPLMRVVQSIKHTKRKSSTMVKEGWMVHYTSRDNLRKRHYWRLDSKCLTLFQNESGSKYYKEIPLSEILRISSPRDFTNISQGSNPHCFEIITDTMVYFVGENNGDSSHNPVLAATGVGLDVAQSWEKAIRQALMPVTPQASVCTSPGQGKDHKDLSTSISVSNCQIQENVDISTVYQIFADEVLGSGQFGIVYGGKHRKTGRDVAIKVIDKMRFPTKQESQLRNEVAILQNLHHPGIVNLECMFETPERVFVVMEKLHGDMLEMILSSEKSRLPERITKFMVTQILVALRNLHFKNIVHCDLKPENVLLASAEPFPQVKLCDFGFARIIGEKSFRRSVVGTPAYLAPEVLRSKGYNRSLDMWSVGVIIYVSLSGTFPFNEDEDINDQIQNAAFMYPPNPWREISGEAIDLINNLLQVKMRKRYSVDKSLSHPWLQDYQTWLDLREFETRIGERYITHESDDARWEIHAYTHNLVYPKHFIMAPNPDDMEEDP

[18] = target: AP2-associated protein kinase 1 (Homo sapiens) (UniProt Q2M2I8); conditions: Compound concentration 1000.0 nM
[19] = target: Mitogen-activated protein kinase kinase kinase 12 (Homo sapiens) (UniProt Q12852); conditions: Compound concentration 1000.0 nM
[20] = target: Calcium/calmodulin-dependent protein kinase type IV (Homo sapiens) (UniProt Q16566); conditions: Compound concentration 1000.0 nM
[21] = target: Aurora kinase C (Homo sapiens) (UniProt Q9UQB9); conditions: Compound concentration 1000.0 nM
Aurora kinase C (Homo sapiens), sequence (Q9UQB9 whole entry): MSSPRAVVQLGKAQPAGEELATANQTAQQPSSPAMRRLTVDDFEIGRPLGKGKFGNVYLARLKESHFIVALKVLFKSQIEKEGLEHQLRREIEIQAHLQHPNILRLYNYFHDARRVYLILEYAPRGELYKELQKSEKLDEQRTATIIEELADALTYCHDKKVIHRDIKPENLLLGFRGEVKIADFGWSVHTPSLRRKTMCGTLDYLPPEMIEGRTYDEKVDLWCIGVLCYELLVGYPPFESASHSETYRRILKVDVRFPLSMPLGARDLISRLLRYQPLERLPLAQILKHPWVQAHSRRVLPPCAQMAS

[22] = target: Cyclin-dependent kinase 15 (Homo sapiens) (UniProt Q96Q40); conditions: Compound concentration 1000.0 nM
[23] = target: G protein-coupled receptor kinase 4 (Homo sapiens) (UniProt P32298); conditions: Compound concentration 1000.0 nM
[24] = target: Sigma intracellular receptor 2 (Homo sapiens, UniProt Q5BJF2); conditions: Compound concentration 10.0 uM
[25] = target: MAP kinase-activated protein kinase 5 (Homo sapiens) (UniProt Q8IW41); conditions: Compound concentration 1000.0 nM
[26] = target: SNF-related serine/threonine-protein kinase (Homo sapiens) (UniProt Q9NRH2); conditions: Compound concentration 1000.0 nM
[27] = target: Glycogen synthase kinase-3 beta (Homo sapiens) (UniProt P49841); conditions: Compound concentration 1000.0 nM
[28] = target: Dual specificity tyrosine-phosphorylation-regulated kinase 1A (Homo sapiens) (UniProt Q13627); conditions: Compound concentration 1000.0 nM
[29] = target: Tyrosine-protein kinase JAK3 (Homo sapiens) (UniProt P52333); conditions: Compound concentration 1000.0 nM
[30] = target: Focal adhesion kinase 1 (Homo sapiens) (UniProt Q05397); conditions: Compound concentration 1000.0 nM
[31] = tested on: Tyrosine-protein kinase ABL1 (Homo sapiens), P00519 [Q252H]; conditions: Compound concentration 1000.0 nM
[32] = tested on: Leucine-rich repeat serine/threonine-protein kinase 2 (Homo sapiens), Q5S007 [G2019S]; conditions: Compound concentration 1000.0 nM
Leucine-rich repeat serine/threonine-protein kinase 2 (Homo sapiens), Q5S007 [G2019S], sequence (Q5S007 whole entry G2019S): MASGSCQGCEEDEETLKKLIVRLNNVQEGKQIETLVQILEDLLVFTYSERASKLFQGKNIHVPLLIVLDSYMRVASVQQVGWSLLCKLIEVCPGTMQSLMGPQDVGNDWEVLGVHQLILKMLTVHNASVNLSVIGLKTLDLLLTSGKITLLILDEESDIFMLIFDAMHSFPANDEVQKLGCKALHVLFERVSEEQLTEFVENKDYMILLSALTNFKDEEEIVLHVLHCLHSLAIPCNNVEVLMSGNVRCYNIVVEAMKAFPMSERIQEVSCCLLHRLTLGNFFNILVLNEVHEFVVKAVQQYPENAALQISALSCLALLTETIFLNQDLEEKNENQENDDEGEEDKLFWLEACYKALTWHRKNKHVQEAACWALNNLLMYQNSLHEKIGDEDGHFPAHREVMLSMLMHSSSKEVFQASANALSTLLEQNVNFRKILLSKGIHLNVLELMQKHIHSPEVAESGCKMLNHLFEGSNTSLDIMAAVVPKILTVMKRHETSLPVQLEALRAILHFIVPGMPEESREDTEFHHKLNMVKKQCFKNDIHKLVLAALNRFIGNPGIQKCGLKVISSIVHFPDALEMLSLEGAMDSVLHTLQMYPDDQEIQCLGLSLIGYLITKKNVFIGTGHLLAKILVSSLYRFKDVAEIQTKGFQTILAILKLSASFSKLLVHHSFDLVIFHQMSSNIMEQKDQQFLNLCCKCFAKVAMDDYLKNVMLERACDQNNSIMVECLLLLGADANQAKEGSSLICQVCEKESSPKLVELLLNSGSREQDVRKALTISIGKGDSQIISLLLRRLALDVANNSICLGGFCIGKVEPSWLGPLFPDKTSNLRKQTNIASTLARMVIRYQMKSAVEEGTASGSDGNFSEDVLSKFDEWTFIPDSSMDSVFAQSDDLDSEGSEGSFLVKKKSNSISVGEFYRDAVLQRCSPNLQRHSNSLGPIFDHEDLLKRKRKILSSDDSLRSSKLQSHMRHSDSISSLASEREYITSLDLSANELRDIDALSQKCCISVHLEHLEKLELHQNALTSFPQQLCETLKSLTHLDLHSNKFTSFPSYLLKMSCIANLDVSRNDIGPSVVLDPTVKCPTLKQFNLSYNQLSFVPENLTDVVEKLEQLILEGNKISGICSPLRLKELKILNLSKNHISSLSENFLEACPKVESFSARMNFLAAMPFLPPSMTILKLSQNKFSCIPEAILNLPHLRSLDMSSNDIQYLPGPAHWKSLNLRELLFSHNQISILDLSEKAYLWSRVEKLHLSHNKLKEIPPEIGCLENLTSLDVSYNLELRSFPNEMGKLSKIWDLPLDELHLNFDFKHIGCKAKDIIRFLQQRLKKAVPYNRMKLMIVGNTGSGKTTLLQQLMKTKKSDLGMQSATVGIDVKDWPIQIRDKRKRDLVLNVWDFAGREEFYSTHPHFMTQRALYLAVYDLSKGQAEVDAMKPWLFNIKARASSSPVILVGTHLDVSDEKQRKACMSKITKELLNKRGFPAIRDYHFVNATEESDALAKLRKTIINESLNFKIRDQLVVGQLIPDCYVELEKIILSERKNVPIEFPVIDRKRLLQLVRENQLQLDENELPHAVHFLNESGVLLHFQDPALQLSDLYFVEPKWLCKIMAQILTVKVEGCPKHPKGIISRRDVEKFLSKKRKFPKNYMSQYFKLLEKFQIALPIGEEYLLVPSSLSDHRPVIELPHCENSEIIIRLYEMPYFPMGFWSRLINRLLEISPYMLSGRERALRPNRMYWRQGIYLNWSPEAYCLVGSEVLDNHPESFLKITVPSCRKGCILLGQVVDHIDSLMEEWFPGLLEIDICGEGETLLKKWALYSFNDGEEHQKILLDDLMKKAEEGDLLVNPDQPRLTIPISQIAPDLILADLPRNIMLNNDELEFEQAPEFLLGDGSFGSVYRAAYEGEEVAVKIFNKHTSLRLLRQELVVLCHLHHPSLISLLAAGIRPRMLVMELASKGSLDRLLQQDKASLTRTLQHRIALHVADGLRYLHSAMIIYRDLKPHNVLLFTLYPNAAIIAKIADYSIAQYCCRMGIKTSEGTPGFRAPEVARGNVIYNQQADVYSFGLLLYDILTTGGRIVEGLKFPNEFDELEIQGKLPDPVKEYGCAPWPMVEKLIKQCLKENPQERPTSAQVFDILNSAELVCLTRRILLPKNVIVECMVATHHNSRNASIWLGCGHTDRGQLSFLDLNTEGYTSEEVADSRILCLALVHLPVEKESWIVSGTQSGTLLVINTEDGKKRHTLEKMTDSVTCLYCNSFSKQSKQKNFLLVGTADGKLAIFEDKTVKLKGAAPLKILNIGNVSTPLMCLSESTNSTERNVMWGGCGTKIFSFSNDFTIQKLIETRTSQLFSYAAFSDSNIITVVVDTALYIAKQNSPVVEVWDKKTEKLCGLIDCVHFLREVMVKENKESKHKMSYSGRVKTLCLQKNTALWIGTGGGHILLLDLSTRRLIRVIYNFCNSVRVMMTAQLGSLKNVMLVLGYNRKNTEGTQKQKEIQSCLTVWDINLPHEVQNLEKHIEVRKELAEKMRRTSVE

[33] = target: Serine/threonine-protein kinase Nek7 (Homo sapiens) (UniProt Q8TDX7); conditions: Compound concentration 1000.0 nM
[34] = target: Ephrin type-A receptor 1 (Homo sapiens) (UniProt P21709); conditions: Compound concentration 1000.0 nM

`O=C(NCc1ncc(C(F)(F)F)cc1Cl)c1ccc2c(c1)C1(CCS(=O)(=O)CC1)[C@H](C1CC1)N2S(=O)(=O)c1ccc(F)cc1` [BAY-784] gave an inhibition [1] of 13.5%, a residual activity [2] of 58% and an inhibition [3] of -4.46%. The residual activity [4] was 100%, the residual activity [5] was 91% and the residual activity [6] was 82%. For the same compound, the residual activity [7] was 100%, the residual activity [8] was 77% and the residual activity [9] was 100%. It also gave a residual activity [10] of 100%, a residual activity [11] of 94% and a residual activity [12] of 100%. It also gave a residual activity [13] of 100%, an inhibition [14] of 1.03% and a residual activity [15] of 92%. The residual activity [16] was 99%, the residual activity [17] was 100% and the residual activity [18] was 99%. It also gave a residual activity [19] of 82%, a residual activity [20] of 86% and a residual activity [21] of 82%. It also gave a residual activity [22] of 100%, a residual activity [23] of 100% and an inhibition [24] of 74.9%. It also gave a residual activity [25] of 100%, a residual activity [26] of 77% and a residual activity [27] of 87%. It also gave a residual activity [28] of 88%, a residual activity [29] of 79% and a residual activity [30] of 100%. The residual activity [31] was 70%, the residual activity [32] was 100% and the residual activity [33] was 100%. For the same compound, the residual activity [34] was 100%.

With `O=C(NCc1ncc(C(F)(F)F)cc1Cl)c1ccc2c(c1)C1(CCS(=O)(=O)CC1)[C@@H](C1CC1)N2S(=O)(=O)c1ccc(F)cc1` [BAY-786] the inhibition [1] was -1.68%, the residual activity [2] was 54% and the inhibition [3] was -8.58%. It also gave a residual activity [4] of 82%, a residual activity [5] of 100% and a residual activity [6] of 81%. The residual activity [7] was 85%, the residual activity [8] was 89% and the residual activity [9] was 90%. For the same compound, the residual activity [10] was 85%, the residual activity [11] was 92% and the residual activity [12] was 30%. The residual activity [13] was 93%, the inhibition [14] was 3.76% and the residual activity [15] was 100%. The residual activity [16] was 100%, the residual activity [17] was 100% and the residual activity [18] was 100%. For the same compound, the residual activity [19] was 87%, the residual activity [20] was 71% and the residual activity [21] was 80%. It also gave a residual activity [22] of 69%, a residual activity [23] of 100% and an inhibition [24] of 52.7%. For the same compound, the residual activity [25] was 100%, the residual activity [26] was 96% and the residual activity [27] was 90%. The residual activity [28] was 85%, the residual activity [29] was 93% and the residual activity [30] was 95%. For the same compound, the residual activity [31] was 87%, the residual activity [32] was 100% and the residual activity [33] was 65%. It also gave a residual activity [34] of 86%.
